Reference: patent US11377442B2, “Small molecule agonists and antagonists of NR2F6 activity” (ZANDER THERAPEUTICS, INC., priority 2016, dated 2022)
Like-named read-outs stand apart in the source and are kept apart here. Blank lines part the entries; values can stand above or below the compound they belong to.

Columns and labels:
Type in all cases: cell-based
NR2F6 = target: T1, NR2F6 (Homo sapiens, UniProt P10588); assay: NR2F6 agonist screening, Firefly signal cmpd/DMSO; details: for F4, Firefly/Renilla for S/B(F4) > 3 / Firefly, F4/pGL4 for S/B(F4) > 3 / Firefly, F4, 10% FBS, cmpd/DMSO (mean): 10% FBS
T1 construct: expressed in transfected cells; also transient transfection
T1 sequence (P10588 1-404): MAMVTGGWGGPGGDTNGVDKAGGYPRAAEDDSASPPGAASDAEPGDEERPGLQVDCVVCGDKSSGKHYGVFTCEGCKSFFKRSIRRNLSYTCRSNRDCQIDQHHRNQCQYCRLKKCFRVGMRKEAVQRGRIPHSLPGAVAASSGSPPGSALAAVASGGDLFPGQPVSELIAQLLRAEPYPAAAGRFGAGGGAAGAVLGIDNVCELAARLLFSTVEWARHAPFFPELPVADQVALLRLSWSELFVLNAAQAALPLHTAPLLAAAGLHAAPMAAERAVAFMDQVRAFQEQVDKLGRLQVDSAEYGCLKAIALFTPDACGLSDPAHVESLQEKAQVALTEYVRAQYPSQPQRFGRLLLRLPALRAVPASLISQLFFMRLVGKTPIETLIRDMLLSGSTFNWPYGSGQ

Renilla = Renilla signal in NR2F6 agonist screening, cmpd/DMSO; details: Renilla, F4
HEK293 pGL4 = assay: Firefly_pGL signal, cmpd/DMSO (pGL4 control cells); details: Homo sapiens
NR2F6 LBD = target: T2, NR2F6 LBD (Homo sapiens, UniProt P10588); assay: NR2F6 LBD transient transfection; details: LBD
T2 construct: expressed in transfected cells
T2 sequence (P10588 165-393 limits assumed): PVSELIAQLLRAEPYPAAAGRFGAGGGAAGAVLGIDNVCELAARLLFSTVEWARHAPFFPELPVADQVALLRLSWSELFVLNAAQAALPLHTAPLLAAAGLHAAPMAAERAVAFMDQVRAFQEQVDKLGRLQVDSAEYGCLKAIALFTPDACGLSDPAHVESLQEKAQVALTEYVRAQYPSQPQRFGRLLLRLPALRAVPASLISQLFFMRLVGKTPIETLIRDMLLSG
Procedure: FIGS. 27A and 27B show NR2F6 and LBD transient transfection, respectively, for Compound D28. Higher concentrations were excluded due to lower signal (tox effect). FIGS. 27C and 27D show NR2F6 and LBD transient transfection at different concentrations for different compounds. 9 compounds were tested on LBD transfected cells (40, 10, 2 and 0.5 μM, 4 replicates). FIGS. 27E and 27F show toxicity of Compound D28. 9 compounds were tested for cytotoxicity on LBD transfected cells (40, 10, 2 and 0.5 μM, 4 replicates). […] Cytotoxicity normalized to DMSO is shown in FIG. 27F (0% cytotoxicity corresponds to DMSO signal, 100%—zero signal).
FIGS. 34A and 34B show NR2F6 LBD transient transfection for Compound E21. 9 compounds were tested on LBD transfected cells (40, 10, 2 and 0.5 μM, 4 replicates). FIGS. 34C and 34D show NR2F6 and LBD transient transfection at different concentrations for different compounds. 9 compounds were tested on LBD transfected cells (40, 10, 2 and 0.5 μM, 4 replicates). […] Cytotoxicity normalized to DMSO is shown in FIG. 34D (0% cytotoxicity corresponds to DMSO signal, 100%—zero signal). All compounds were tested at 5, 10, 25 and 50 uM in duplicates. Dog PBMC (1×10^6 cells/mL) were activated by 10 ng/mL PMA+500 ng/mL ionomycin. Data were normalized to controls with (100%)/without (0%) PMA+ionomycin activation.
FIGS. 39A and 39B show NR2F6 LBD transient transfection for Compound F1. 9 compounds were tested on LBD transfected cells (40, 10, 2 and 0.5 μM, 4 replicates). FIGS. 39C and 39D show toxicity of NR2F6 LBD transient transfection. 9 compounds were tested for cytotoxicity on LBD transfected cells (40, 10, 2 and 0.5 μM, 4 replicates). Tox effect causes lower signal compared to DMSO. Cytotoxicity normalized to DMSO is shown in FIG. 39D (0% cytotoxicity corresponds to DMSO signal, 100%—zero signal).

[1] = read-out: Renilla, F4, cmpd/DMSO (mean)
[2] = 1% FBS, read-out: Renilla, F4, 1% FBS, cmpd/DMSO (mean)
[3] = 10% FBS, read-out: Renilla, F4, 10% FBS, cmpd/DMSO (mean)
[4] = HEK293, 0.5 uM, pGL4, read-out: Firefly pGL4, cmpd/DMSO (mean)
[5] = HEK293, 2 uM, pGL4, read-out: Firefly pGL4, cmpd/DMSO (mean)
[6] = HEK293, 10 uM, pGL4, read-out: Firefly pGL4, cmpd/DMSO (mean)
[7] = HEK293, 40 uM, pGL4, read-out: Firefly pGL4, cmpd/DMSO (mean)
[8] = HEK293, pGL4, 1% FBS, 0.5 uM, read-out: Firefly, pGL4, 1% FBS, cmpd/DMSO (mean)
[9] = HEK293, pGL4, 1% FBS, 2 uM, read-out: Firefly, pGL4, 1% FBS, cmpd/DMSO (mean)
[10] = HEK293, pGL4, 1% FBS, 10 uM, read-out: Firefly, pGL4, 1% FBS, cmpd/DMSO (mean)
[11] = HEK293, pGL4, 1% FBS, 40 uM, read-out: Firefly, pGL4, 1% FBS, cmpd/DMSO (mean)
[12] = HEK293, pGL4, 10% FBS, 0.5 uM, read-out: Firefly, pGL4, 10% FBS, cmpd/DMSO (mean)
[13] = HEK293, pGL4, 10% FBS, 2 uM, read-out: Firefly, pGL4, 10% FBS, cmpd/DMSO (mean)
[14] = HEK293, pGL4, 10% FBS, 10 uM, read-out: Firefly, pGL4, 10% FBS, cmpd/DMSO (mean)
[15] = HEK293, pGL4, 10% FBS, 40 uM, read-out: Firefly, pGL4, 10% FBS, cmpd/DMSO (mean)

Firefly F4, cmpd/DMSO (mean) (NR2F6; 0.5 uM): 1.3
Firefly F4, cmpd/DMSO (mean) (NR2F6; 2 uM): 1.6
Firefly F4, cmpd/DMSO (mean) (NR2F6; 10 uM): 2.8
Firefly F4, cmpd/DMSO (mean) (NR2F6; 40 uM): 3.3
F4, Firefly/Renilla for S/B(F4) > 3 (NR2F6; 40 uM): 3.2
Firefly, F4/pGL4 for S/B(F4) > 3 (NR2F6; 40 uM): 2.3
Firefly, F4, 1% FBS, cmpd/DMSO (mean) (NR2F6; 0.5 uM): 1.4
Firefly, F4, 1% FBS, cmpd/DMSO (mean) (NR2F6; 2 uM): 1.1
Firefly, F4, 1% FBS, cmpd/DMSO (mean) (NR2F6; 10 uM): 2.8
Firefly, F4, 1% FBS, cmpd/DMSO (mean) (NR2F6; 40 uM): 2.5
Firefly, F4, 10% FBS, cmpd/DMSO (mean) (NR2F6; 0.5 uM): 1.7
Firefly, F4, 10% FBS, cmpd/DMSO (mean) (NR2F6; 2 uM): 1.5
Firefly, F4, 10% FBS, cmpd/DMSO (mean) (NR2F6; 10 uM): 2.1
Firefly, F4, 10% FBS, cmpd/DMSO (mean) (NR2F6; 40 uM): 5.8
Firefly LBD, cmpd/DMSO (mean) (NR2F6 LBD; 0.5 uM): 1.1
Firefly LBD, cmpd/DMSO (mean) (NR2F6 LBD; 2 uM): 1.3
Firefly LBD, cmpd/DMSO (mean) (NR2F6 LBD; 10 uM): 2.2
Firefly LBD, cmpd/DMSO (mean) (NR2F6 LBD; 40 uM): 2.5
Compound: CCC(C)N[C@H]1CS(=O)(=O)C[C@@H]1S(=O)(=O)c1ccc(C)cc1 (stereo partly drawn) [Compound D113]
fold induction at 0.5 µM (Renilla; [1]): 1.1
fold induction at 2 µM (Renilla; [1]): 1
fold induction at 10 µM (Renilla; [1]): 1.3
fold induction at 40 µM (Renilla; [1]): 1.4
fold induction at 0.5 µM (Renilla; [2]): 1.3
fold induction at 2 µM (Renilla; [2]): 1.2
fold induction at 10 µM (Renilla; [2]): 1.6
fold induction at 40 µM (Renilla; [2]): 1.8
fold induction at 0.5 µM (Renilla; [3]): 1
fold induction at 2 µM (Renilla; [3]): 1
fold induction at 10 µM (Renilla; [3]): 1.2
fold induction at 40 µM (Renilla; [3]): 1.8
fold induction at 0.5 µM (HEK293 pGL4; [4]): 1.2
fold induction at 2 µM (HEK293 pGL4; [5]): 1.1
fold induction at 10 µM (HEK293 pGL4; [6]): 2.6
fold induction at 40 µM (HEK293 pGL4; [7]): 2
fold induction at 0.5 µM (HEK293 pGL4; [8]): 1
fold induction at 2 µM (HEK293 pGL4; [9]): 1.2
fold induction at 10 µM (HEK293 pGL4; [10]): 1.8
fold induction at 40 µM (HEK293 pGL4; [11]): 1.6
fold induction at 0.5 µM (HEK293 pGL4; [12]): 1.1
fold induction at 2 µM (HEK293 pGL4; [13]): 1.2
fold induction at 10 µM (HEK293 pGL4; [14]): 1.7
fold induction at 40 µM (HEK293 pGL4; [15]): 2.5

Compound: O=S1(=O)C[C@H](NC2CCCC2)[C@@H](S(=O)(=O)c2ccc(F)cc2)C1 [Compound D114]
Firefly F4, cmpd/DMSO (mean) (NR2F6; 0.5 uM): 1.6
Firefly F4, cmpd/DMSO (mean) (NR2F6; 2 uM): 1.6
Firefly F4, cmpd/DMSO (mean) (NR2F6; 10 uM): 2.4
Firefly F4, cmpd/DMSO (mean) (NR2F6; 40 uM): 3.6
F4, Firefly/Renilla for S/B(F4) > 3 (NR2F6; 40 uM): 2.1
Firefly, F4/pGL4 for S/B(F4) > 3 (NR2F6; 40 uM): 1.6
Firefly, F4, 1% FBS, cmpd/DMSO (mean) (NR2F6; 0.5 uM): 1.3
Firefly, F4, 1% FBS, cmpd/DMSO (mean) (NR2F6; 2 uM): 1.0
Firefly, F4, 1% FBS, cmpd/DMSO (mean) (NR2F6; 10 uM): 1.8
Firefly, F4, 1% FBS, cmpd/DMSO (mean) (NR2F6; 40 uM): 2.2
Firefly, F4, 10% FBS, cmpd/DMSO (mean) (NR2F6; 0.5 uM): 1.2
Firefly, F4, 10% FBS, cmpd/DMSO (mean) (NR2F6; 2 uM): 1.1
Firefly, F4, 10% FBS, cmpd/DMSO (mean) (NR2F6; 10 uM): 1.7
Firefly, F4, 10% FBS, cmpd/DMSO (mean) (NR2F6; 40 uM): 3.2
fold induction at 0.5 µM (Renilla; [1]): 1
fold induction at 2 µM (Renilla; [1]): 1.1
fold induction at 10 µM (Renilla; [1]): 1.2
fold induction at 40 µM (Renilla; [1]): 1.3
fold induction at 0.5 µM (Renilla; [2]): 1.1
fold induction at 2 µM (Renilla; [2]): 1.2
fold induction at 10 µM (Renilla; [2]): 1.7
fold induction at 40 µM (Renilla; [2]): 1.8
fold induction at 0.5 µM (Renilla; [3]): 0.9
fold induction at 2 µM (Renilla; [3]): 1
fold induction at 10 µM (Renilla; [3]): 1.1
fold induction at 40 µM (Renilla; [3]): 1.5
fold induction at 0.5 µM (HEK293 pGL4; [4]): 1.1
fold induction at 2 µM (HEK293 pGL4; [5]): 1.3
fold induction at 10 µM (HEK293 pGL4; [6]): 2
fold induction at 40 µM (HEK293 pGL4; [7]): 2
fold induction at 0.5 µM (HEK293 pGL4; [8]): 1.1
fold induction at 2 µM (HEK293 pGL4; [9]): 1.3
fold induction at 10 µM (HEK293 pGL4; [10]): 1.7
fold induction at 40 µM (HEK293 pGL4; [11]): 1.5
fold induction at 0.5 µM (HEK293 pGL4; [12]): 1.3
fold induction at 2 µM (HEK293 pGL4; [13]): 1.3
fold induction at 10 µM (HEK293 pGL4; [14]): 1.5
fold induction at 40 µM (HEK293 pGL4; [15]): 2
Firefly LBD, cmpd/DMSO (mean) (NR2F6 LBD; 0.5 uM): 1.1
Firefly LBD, cmpd/DMSO (mean) (NR2F6 LBD; 2 uM): 1.3
Firefly LBD, cmpd/DMSO (mean) (NR2F6 LBD; 10 uM): 1.9
Firefly LBD, cmpd/DMSO (mean) (NR2F6 LBD; 40 uM): 2.2
